These molecules were tested on HIV-IIIb (assay: Antiviral assay in MT4 cells). Details: Human immunodeficiency virus 1, IIIB, MT4, 120 h, MT4 cells infected with HIV-IIIb, 5 days, CellTiter-Glo; read-out: EC50 nM in MT-4.
Format: cell-based
Procedure: For the antiviral assay utilizing MT4 cells, 0.4 μL of 189X test concentration of 3-fold serially diluted compound in DMSO was added to 40 μL of cell growth medium (RPMI 1640, 10% FBS, 1% penicilline/Streptomycine, 1% L-Glutamine, 1% HEPES) in each well of 384-well assay plates (10 concentrations) in quidruplicate.
1 mL aliquots of 2×10^6 MT4 cells are pre-infected for 1 and 3 hours respectively at 37° C. with 25 μL (MT4) or of either cell growth medium (mock-infected) or a fresh 1:250 dilution of an HIV-IIIb concentrated ABI stock (0.004 m.o.i. for MT4 cells). Infected and uninfected cells are diluted in cell growth medium and 35 μL of 2000 (for MT4) cells is added to each well of the assay plates.
Assay plates were then incubated in a 37° C. incubator. After 5 days of incubation, 25 μL of 2× concentrated CellTiter-Glo™ Reagent (catalog # G7573, Promega Biosciences, Inc., Madison, Wis.) was added to each well of the assay plate. Cell lysis was carried out by incubating at room temperature for 2-3 minutes, and then chemiluminescence was read using the Envision reader (PerkinElmer).

Row | Compound | EC50 [nM]
1 | O=C(NCc1ccc(F)cc1F)c1cn2c(c(O)c1=O)C(=O)N1[C@@H]3COC[C@@H](C3)O[C@H]1C2 (racemic) [50/51, N-(2,4-difluorobenzyl)-9-hydroxy-8,10-dioxo-2,3,5,6,8,10,14,14a-octahydro-2,6-methanopyrido[1′,2′:4,5]pyrazino[2,1-b][1,6,3]dioxazocine-11-carboxamide] | 1.9
2 | O=C(NCc1ccc(F)cc1F)c1cn2c(c(O)c1=O)C(=O)N1[C@@H]3CC[C@@H](C3)O[C@H]1C2 (racemic) [Compound 1, N-(2,4-difluorobenzyl)-8-hydroxy-7,9-dioxo-2,3,4,5,7,9,13,13a-octahydro-2,5-methanopyrido[1′,2′:4,5]pyrazino[2,1-b][1,3]oxazepine-10-carboxamide] | 2.6
3 | O=C(NCc1c(F)cc(F)cc1F)c1cn2c(c(O)c1=O)C(=O)N1[C@H]3C[C@H](C3)[C@H]1C2 (single isomer, unassigned) [Compound 96] | 2.6
4 | O=C(NCc1c(F)cc(F)cc1F)c1cn2c(c(O)c1=O)C(=O)N1[C@H]3C[C@H](C3)[C@@H]1C2 (single isomer, unassigned) [Compound 97] | 2.1
5 | O=C(NCc1c(F)cc(F)cc1F)c1cn2c(c(O)c1=O)C(=O)N1[C@H]3CC(F)C(C3)[C@@H]1C2 (stereo in doubt) [Compound 56, (1R,2S,4R,12aR)-2-fluoro-7-hydroxy-6,8-dioxo-N-(2,4,6-trifluorobenzyl)-1,2,3,4,6,8,12,12a-octahydro-1,4-methanodipyrido[1,2-a:1′,2′-d]pyrazine-9-carboxamide] | 3.1
6 | O=C(NCc1ccc(F)cc1F)c1cn2c(c(O)c1=O)C(=O)N1[C@H]3CC[C@H](C3)O[C@@H]1C2 [Compound 2, (2R,5S,13aR)—N-(2,4-difluorobenzyl)-8-hydroxy-7,9-dioxo-2,3,4,5,7,9,13,13a-octahydro-2,5-methanopyrido[1′,2′:4,5]pyrazino[2,1-b][1,3]oxazepine-10-carboxamide] | 2.2
7 | O=C(NCc1ccc(F)cc1F)c1cn2c(c(O)c1=O)C(=O)N1[C@@H]3CC[C@@H](C3)O[C@H]1C2 [Compound 3, (2S,5R,13aS)—N-(2,4-difluorobenzyl)-8-hydroxy-7,9-dioxo-2,3,4,5,7,9,13,13a-octahydro-2,5-methanopyrido[1′,2′:4,5]pyrazino[2,1-b][1,3]oxazepine-10-carboxamide] | 2
8 | O=C(NCc1ccc(F)cc1F)c1cn2c(c(O)c1=O)C(=O)N1C(C2)[N@@]2CC[C@@H]1C2 (stereo partly drawn) [Compound 4, (1S,4R)—N-(2,4-difluorobenzyl)-7-hydroxy-6,8-dioxo-3,4,6,8,12,12a-hexahydro-2H-1,4-methanopyrido[1′,2′:4,5]pyrazino[1,2-a]pyrimidine-9-carboxamide] | 14.8
9 | C[C@@H]1CCO[C@H]2Cn3cc(C(=O)NC4(c5ccc(F)cc5F)CC4)c(=O)c(O)c3C(=O)N12 [Compound 5, (4R,12aS)—N-(1-(2,4-difluorophenyl)cyclopropyl)-7-hydroxy-4-methyl-6,8-dioxo-3,4,6,8,12,12a-hexahydro-2H-[1,3]oxazino[3,2-d]pyrido[1,2-a]pyrazine-9-carboxamide] | 8.1
10 | O=C(NCc1ccc(F)cc1F)c1cn2c(c(O)c1=O)C(=O)N1C(C2)[N@]2CC[C@H]1C2 (stereo partly drawn) [Compound 6, (1R,4S)—N-(2,4-difluorobenzyl)-7-hydroxy-6,8-dioxo-3,4,6,8,12,12a-hexahydro-2H-1,4-methanopyrido[1′,2′:4,5]pyrazino[1,2-a]pyrimidine-9-carboxamide] | 5.3
11 | O=C(NCc1ccc(F)cc1F)c1cn2c(c(O)c1=O)C(=O)N1C(C2)O[C@H]2CCC[C@@H]1C2 (stereo partly drawn) [Compound 7, (2S,6R)—N-(2,4-difluorobenzyl)-9-hydroxy-8,10-dioxo-3,4,5,6,8,10,14,14a-octahydro-2H-2,6-methanopyrido[1′,2′:4,5]pyrazino[2,1-b][1,3]oxazocine-11-carboxamide] | 3.5
12 | O=C(NCc1ccc(F)cc1F)c1cn2c(c(O)c1=O)C(=O)N1C(C2)O[C@@H]2CCC[C@H]1C2 (stereo partly drawn) [Compound 8, (2R,6S)—N-(2,4-difluorobenzyl)-9-hydroxy-8,10-dioxo-3,4,5,6,8,10,14,14a-octahydro-2H-2,6-methanopyrido[1′,2′:4,5]pyrazino[2,1-b][1,3]oxazocine-11-carboxamide] | 2.5
13 | C[C@@H](NC(=O)c1cn2c(c(O)c1=O)C(=O)N1[C@@H]3CC[C@@H](C3)O[C@H]1C2)c1ccc(F)cc1 [Compound 9, (2S,5R,13aS)—N—((R)-1-(4-fluorophenyl)ethyl)-8-hydroxy-7,9-dioxo-2,3,4,5,7,9,13,13a-octahydro-2,5-methanopyrido[1′,2′:4,5]pyrazino[2,1-b][1,3]oxazepine-10-carboxamide] | 5.1
14 | C[C@@H](NC(=O)c1cn2c(c(O)c1=O)C(=O)N1[C@H]3CC[C@H](C3)O[C@@H]1C2)c1ccc(F)cc1 [Compound 10, (2R,5S,13aR)—N—((R)-1-(4-fluorophenyl)ethyl)-8-hydroxy-7,9-dioxo-2,3,4,5,7,9,13,13a-octahydro-2,5-methanopyrido[1%2′: 4,5]pyrazino[2,1-b][1,3]oxazepine-10-carboxamide] | 6.1
15 | C[C@@H](NC(=O)c1cn2c(c(O)c1=O)C(=O)N1[C@@H]3CC[C@@H](C3)O[C@H]1C2)c1ccc(F)cc1F [Compound 11, (2S,5R,13aS)—N—((R)-1-(2,4-difluorophenyl)ethyl)-8-hydroxy-7,9-dioxo-2,3,4,5,7,9,13,13a-octahydro-2,5-methanopyrido[1′,2′: 4,5]pyrazino[2,1-b][1,3]oxazepine-10-carboxamide] | 4.9
16 | C[C@@H](NC(=O)c1cn2c(c(O)c1=O)C(=O)N1[C@H]3CC[C@H](C3)O[C@@H]1C2)c1ccc(F)cc1F [Compound 12, (2R,5S,13aR)—N—((R)-1-(2,4-difluorophenyl)ethyl)-8-hydroxy-7,9-dioxo-2,3,4,5,7,9,13,13a-octahydro-2,5-methanopyrido[1′,2′:4,5]pyrazino[2,1-b][1,3]oxazepine-10-carboxamide] | 5.9
17 | C[C@H](NC(=O)c1cn2c(c(O)c1=O)C(=O)N1[C@@H]3CC[C@@H](C3)O[C@H]1C2)c1ccc(F)cc1F [Compound 13, (2S,5R,13aS)—N—((S)-1-(2,4-difluorophenyl)ethyl)-8-hydroxy-7,9-dioxo-2,3,4,5,7,9,13,13a-octahydro-2,5-methanopyrido[1%2′: 4,5]pyrazino[2,1-b][1,3]oxazepine-10-carboxamide] | 46
18 | C[C@H](NC(=O)c1cn2c(c(O)c1=O)C(=O)N1[C@H]3CC[C@H](C3)O[C@@H]1C2)c1ccc(F)cc1F [Compound 14, (2R,5S,13aR)—N—((S)-1-(2,4-difluorophenyl)ethyl)-8-hydroxy-7,9-dioxo-2,3,4,5,7,9,13,13a-octahydro-2,5-methanopyrido[1′,2′:4,5]pyrazino[2,1-b][1,3]oxazepine-10-carboxamide] | 65.5
19 | O=C(NCc1ccc(F)cc1)c1cn2c(c(O)c1=O)C(=O)N1[C@@H]3CC[C@@H](C3)O[C@H]1C2 [Compound 15, (2 S,5R,13aS)—N-(4-fluorobenzyl)-8-hydroxy-7,9-dioxo-2,3,4,5,7,9,13,13a-octahydro-2,5-methanopyrido[1′,2′:4,5]pyrazino[2,1-b][1,3]oxazepine-10-carboxamide] | 2.2
20 | O=C(NCc1cccc(F)c1F)c1cn2c(c(O)c1=O)C(=O)N1[C@@H]3CC[C@@H](C3)O[C@H]1C2 [Compound 16, (2S,5R,13aS)—N-(2,3-difluorobenzyl)-8-hydroxy-7,9-dioxo-2,3,4,5,7,9,13,13a-octahydro-2,5-methanopyrido[1′,2′:4,5]pyrazino[2,1-b][1,3]oxazepine-10-carboxamide] | 1.5
21 | O=C(NCc1ccc(Cl)cc1F)c1cn2c(c(O)c1=O)C(=O)N1[C@@H]3CC[C@@H](C3)O[C@H]1C2 [Compound 17, (2 S,5R,13aS)—N-(4-chloro-2-fluorobenzyl)-8-hydroxy-7,9-dioxo-2,3,4,5,7,9,13,13a-octahydro-2,5-methanopyrido[1′,2′:4,5]pyrazino[2,1-b][1,3]oxazepine-10-carboxamide] | 5.9
22 | O=C(NCc1ccc(F)c(F)c1)c1cn2c(c(O)c1=O)C(=O)N1[C@@H]3CC[C@@H](C3)O[C@H]1C2 [Compound 18, (2S,5R,13aS)—N-(3,4-difluorobenzyl)-8-hydroxy-7,9-dioxo-2,3,4,5,7,9,13,13a-octahydro-2,5-methanopyrido[1′,2′:4,5]pyrazino[2,1-b][1,3]oxazepine-10-carboxamide] | 4.1

Same assay, conditions: Human immunodeficiency virus 1, IIIB, MT4, 120 h, read-out: EC50 nM in MT-4, MT4 cells infected with HIV-IIIb, 5 days, CellTiter-Glo

Row | Compound | EC50 [nM]
23 | O=C(NCc1ccc(F)cc1F)c1cn2c(c(O)c1=O)C(=O)N1C(C2)[C@H]2CC[C@@H]1C2 (stereo in doubt) [Compound 38, (1S,4R,12aR)—N-(2,4-difluorobenzyl)-7-hydroxy-6,8-dioxo-1,2,3,4,6,8,12,12a-octahydro-1,4-methanodipyrido[1,2-a:1′,2′-d]pyrazine-9-carboxamide] | 1.7
24 | O=C(NCc1ccc(F)cc1F)c1cn2c(c(O)c1=O)C(=O)N1C(C2)[C@H]2CC[C@@H]1C2 (stereo in doubt) [Compound 48, (1S,4R,12aS)—N-(2,4-difluorobenzyl)-7-hydroxy-6,8-dioxo-1,2,3,4,6,8,12,12a-octahydro-1,4-methanodipyrido[1,2-a:1′,2′-d]pyrazine-9-carboxamide] | 2.7
